Measurements taken from patent publication US10633379B2, “Bromodomain inhibitors” (AbbVie Inc., priority 2016, dated 2020).

How the values were obtained:
[1] = target: BRD4 (BDII_E352-M457) (Homo sapiens (Human), UniProt O60885); assay: TR-FRET bromodomain binding assay, BRD4 BDII; conditions: mean Ki, calculated from IC50, probe Kd and probe concentration
Procedure: (§1) A time-resolved fluorescence resonance energy transfer (TR-FRET) assay was used to determine the affinities of compounds of the Examples listed in Table 1 for each bromodomain of BRD4. His-tagged first (BDI: amino acids K57-E168) and second (BDII: amino acids E352-M457) bromodomains of BRD4 were expressed and purified. An Alexa647-labeled BET-inhibitor was used as the fluorescent probe in the assay.
(§2) Compound dilution series were prepared in DMSO via an approximately 3-fold serial dilution. Compound dilutions were added directly into white, low-volume assay plates (Perkin Elmer Proxiplate 384 Plus#6008280) using a Labcyte Echo in conjunction with Labcyte Access and Thermo Multidrop CombinL robotics. Compounds were then suspended in eight microliters (μL) of assay buffer (20 mM Sodium Phosphate, pH 6.0, 50 mM NaCl, 1 mM Ethylenediaminetetraacetic acid disodium salt dihydrate, 0.01% Triton X-100, 1 mM DL-Dithiothreitol) containing His-tagged bromodomain, Europium-conjugated anti-His antibody (Invitrogen PV5596) and Alexa-647-conjugated probe.
(§3) The final concentration of 1× assay mixture contained 2% DMSO, 12 nM His tagged BRD4 (BDI_K57-E168) and 100 nM probe or 4 nM His tagged BRD4 (BDII_E352-M457) and 30 nM probe, and 1 nM Europium-conjugated anti-His-tag antibody, and compound concentrations in the range of: 49.02 μM-0.61 nM or 0.98 μM-0.15 nM.
(§4) After a one-hour equilibration at room temperature, TR-FRET ratios were determined using an Envision multilabel plate reader (Ex 340, Em 495/520).
(§5) TR-FRET data were normalized to the means of 24 no-compound controls (“high”) and 8 controls containing 1 μM un-labeled probe (“low”). Percent inhibition was plotted as a function of compound concentration and the data were fit with the 4 parameter logistic equation to obtain IC50s. Inhibition constants (Ki) were calculated from the IC50s, probe Kd and probe concentration.

[2] = target: BRD4 (BDI_K57-E168) (Homo sapiens (Human), UniProt O60885); assay: TR-FRET bromodomain binding assay, BRD4 BDI; conditions: mean Ki, calculated from IC50, probe Kd and probe concentration
Procedure: as §1, §2, §3, §4, §5

Row | SMILES | Ki [1] [nM] | Ki [2] [nM]
1 | CCNC(=O)c1cc2c(-c3cc(C(C)(C)O)cnc3Oc3c(C)cc(F)cc3C)cn(C)c(=O)c2[nH]1 [Example 43, N-ethyl-4-[2-(4-fluoro-2,6-dimethylphenoxy)-5-(2-hydroxypropan-2-yl)pyridin-3-yl]-6-methyl-7-oxo-6,7-dihydro-1H-pyrrolo[2,3-c]pyridine-2-carboxamide] | 5 | 525
2 | Cc1cc(F)cc(C)c1Oc1ncc(C(C)(C)O)cc1-c1cn(C)c(=O)c2[nH]c(C(=O)NC(C)(C)C)cc12 [Example 44, N-tert-butyl-4-[2-(4-fluoro-2,6-dimethylphenoxy)-5-(2-hydroxypropan-2-yl)pyridin-3-yl]-6-methyl-7-oxo-6,7-dihydro-1H-pyrrolo[2,3-c]pyridine-2-carboxamide] | 7.3 | 323
3 | Cc1cccc(C(F)(F)F)c1Oc1ncc(C(C)(C)O)cc1-c1cn(C)c(=O)c2[nH]c(C(=O)NC(C)(C)C)cc12 [Example 45, N-tert-butyl-4-{5-(2-hydroxypropan-2-yl)-2-[2-methyl-6-(trifluoromethyl)phenoxy]pyridin-3-yl}-6-methyl-7-oxo-6,7-dihydro-1H-pyrrolo[2,3-c]pyridine-2-carboxamide] | 12.5 | 1080
4 | Cc1cccc(C(F)(F)F)c1Oc1ncc(C(C)(C)O)cc1-c1cn(C)c(=O)c2[nH]c(C(=O)NC(C)(C)C(F)(F)F)cc12 [Example 46, 4-{5-(2-hydroxypropan-2-yl)-2-[2-methyl-6-(trifluoromethyl)phenoxy]pyridin-3-yl}-6-methyl-7-oxo-N-(1,1,1-trifluoro-2-methylpropan-2-yl)-6,7-dihydro-1H-pyrrolo[2,3-c]pyridine-2-carboxamide] | 19.5 | 2520
5 | Cc1cccc(C(F)(F)F)c1Oc1ncc(C(C)(C)O)cc1-c1cn(C)c(=O)c2[nH]c(C(=O)NC3(C)CC3(F)F)cc12 (stereo not shown) [Example 47, N-(2,2-difluoro-1-methylcyclopropyl)-4-{5-(2-hydroxypropan-2-yl)-2-[2-methyl-6-(trifluoromethyl)phenoxy]pyridin-3-yl}-6-methyl-7-oxo-6,7-dihydro-1H-pyrrolo[2,3-c]pyridine-2-carboxamide] | 24.4 | 2060
6 | CCNC(=O)c1cc2c(-c3cc(C(C)(C)O)cnc3Oc3c(C)cccc3C(F)(F)F)cn(C)c(=O)c2[nH]1 [Example 48, N-ethyl-4-{5-(2-hydroxypropan-2-yl)-2-[2-methyl-6-(trifluoromethyl)phenoxy]pyridin-3-yl}-6-methyl-7-oxo-6,7-dihydro-1H-pyrrolo[2,3-c]pyridine-2-carboxamide] | 6 | 1600
7 | CCNC(=O)c1cc2c(-c3cc(C(C)(C)O)ccc3Oc3c(C)cc(F)cc3Cl)cn(C)c(=O)c2[nH]1 [Example 49, 4-[2-(2-chloro-4-fluoro-6-methylphenoxy)-5-(2-hydroxypropan-2-yl)phenyl]-N-ethyl-6-methyl-7-oxo-6,7-dihydro-1H-pyrrolo[2,3-c]pyridine-2-carboxamide] | 1 | 284
8 | Cc1cc(F)cc(Cl)c1Oc1ncc(C(C)(C)O)cc1-c1cn(C)c(=O)c2[nH]c(C(=O)NC(C)(C)C)cc12 [Example 51, N-tert-butyl-4-[2-(2-chloro-4-fluoro-6-methylphenoxy)-5-(2-hydroxypropan-2-yl)pyridin-3-yl]-6-methyl-7-oxo-6,7-dihydro-1H-pyrrolo[2,3-c]pyridine-2-carboxamide] | 4.9 | 263
9 | CCNC(=O)c1cc2c(-c3cc(C(C)(C)O)cnc3Oc3c(C)cc(F)cc3Cl)cn(C)c(=O)c2[nH]1 [Example 52, 4-[2-(2-chloro-4-fluoro-6-methylphenoxy)-5-(2-hydroxypropan-2-yl)pyridin-3-yl]-N-ethyl-6-methyl-7-oxo-6,7-dihydro-1H-pyrrolo[2,3-c]pyridine-2-carboxamide] | 0.9 | 325
10 | Cc1cc(F)cc(Cl)c1Oc1ccc(C(C)(C)O)cc1-c1cn(C)c(=O)c2[nH]c(C(=O)NC(C)(C)C)cc12 [Example 53, N-tert-butyl-4-[2-(2-chloro-4-fluoro-6-methylphenoxy)-5-(2-hydroxypropan-2-yl)phenyl]-6-methyl-7-oxo-6,7-dihydro-1H-pyrrolo[2,3-c]pyridine-2-carboxamide] | 4.6 | 432
11 | Cc1cccc(C(F)(F)F)c1Oc1ccc(C(C)(C)O)cc1-c1cn(C)c(=O)c2[nH]c(C(=O)NC(C)(C)C)cc12 [Example 54, N-tert-butyl-4-{5-(2-hydroxypropan-2-yl)-2-[2-methyl-6-(trifluoromethyl)phenoxy]phenyl}-6-methyl-7-oxo-6,7-dihydro-1H-pyrrolo[2,3-c]pyridine-2-carboxamide] | 6 | 4520
12 | Cc1cc(F)cc(C)c1Oc1ccc(C(C)(C)O)cc1-c1cn(C)c(=O)c2[nH]c(C(=O)NC(C)(C)C(F)(F)F)cc12 [Example 55, 4-[2-(4-fluoro-2,6-dimethylphenoxy)-5-(2-hydroxypropan-2-yl)phenyl]-6-methyl-7-oxo-N-(1,1,1-trifluoro-2-methylpropan-2-yl)-6,7-dihydro-1H-pyrrolo[2,3-c]pyridine-2-carboxamide] | 6.9 | 4690
13 | Cc1cc(F)cc(C)c1Oc1ncc(C(C)(C)O)cc1-c1cn(C)c(=O)c2[nH]c(C(=O)NC(C)(C)C(F)(F)F)cc12 [Example 56, 4-[2-(4-fluoro-2,6-dimethylphenoxy)-5-(2-hydroxypropan-2-yl)pyridin-3-yl]-6-methyl-7-oxo-N-(1,1,1-trifluoro-2-methylpropan-2-yl)-6,7-dihydro-1H-pyrrolo[2,3-c]pyridine-2-carboxamide] | 4.7 | 917
14 | Cc1cc(F)cc(Cl)c1Oc1ccc(C(C)(C)O)cc1-c1cn(C)c(=O)c2[nH]c(C(=O)NC(C)(C)C(F)(F)F)cc12 [Example 57, 4-[2-(2-chloro-4-fluoro-6-methylphenoxy)-5-(2-hydroxypropan-2-yl)phenyl]-6-methyl-7-oxo-N-(1,1,1-trifluoro-2-methylpropan-2-yl)-6,7-dihydro-1H-pyrrolo[2,3-c]pyridine-2-carboxamide] | 17.5 | 2890
15 | Cc1cc(F)cc(Cl)c1Oc1ncc(C(C)(C)O)cc1-c1cn(C)c(=O)c2[nH]c(C(=O)NC(C)(C)C(F)(F)F)cc12 [Example 58, 4-[2-(2-chloro-4-fluoro-6-methylphenoxy)-5-(2-hydroxypropan-2-yl)pyridin-3-yl]-6-methyl-7-oxo-N-(1,1,1-trifluoro-2-methylpropan-2-yl)-6,7-dihydro-1H-pyrrolo[2,3-c]pyridine-2-carboxamide] | 8.1 | 723
16 | Cc1cc(F)cc(C)c1Oc1ccc(C(C)(C)O)cc1-c1cn(C)c(=O)c2[nH]c(C(=O)NC3(C)CC3(F)F)cc12 (stereo not shown) [Example 60, N-(2,2-difluoro-1-methylcyclopropyl)-4-[2-(4-fluoro-2,6-dimethylphenoxy)-5-(2-hydroxypropan-2-yl)phenyl]-6-methyl-7-oxo-6,7-dihydro-1H-pyrrolo[2,3-c]pyridine-2-carboxamide] | 7.5 | 3510
17 | Cc1cc(F)cc(C)c1Oc1ncc(C(C)(C)O)cc1-c1cn(C)c(=O)c2[nH]c(C(=O)NC3(C)CC3(F)F)cc12 (stereo not shown) [Example 61, N-(2,2-difluoro-1-methylcyclopropyl)-4-[2-(4-fluoro-2,6-dimethylphenoxy)-5-(2-hydroxypropan-2-yl)pyridin-3-yl]-6-methyl-7-oxo-6,7-dihydro-1H-pyrrolo[2,3-c]pyridine-2-carboxamide] | 12 | 1580
18 | Cc1cc(F)cc(Cl)c1Oc1ncc(C(C)(C)O)cc1-c1cn(C)c(=O)c2[nH]c(C(=O)NC3(C)CC3(F)F)cc12 (stereo not shown) [Example 62, 4-[2-(2-chloro-4-fluoro-6-methylphenoxy)-5-(2-hydroxypropan-2-yl)pyridin-3-yl]-N-(2,2-difluoro-1-methylcyclopropyl)-6-methyl-7-oxo-6,7-dihydro-1H-pyrrolo[2,3-c]pyridine-2-carboxamide] | 10.2 | 1110
19 | Cc1cccc(Cl)c1Oc1ncc(C(C)(C)O)cc1-c1cn(C)c(=O)c2[nH]c(C(=O)NC34CC(C3)C4)cc12 [Example 63, N-(bicyclo[1.1.1]pentan-1-yl)-4-[2-(2-chloro-6-methylphenoxy)-5-(2-hydroxypropan-2-yl)pyridin-3-yl]-6-methyl-7-oxo-6,7-dihydro-1H-pyrrolo[2,3-c]pyridine-2-carboxamide] | 1.5 | 406
20 | CCNC(=O)c1cc2c(-c3cc(C(C)(C)O)c(F)cc3Oc3c(C)cccc3C)cn(C)c(=O)c2[nH]1 [Example 64, 4-[2-(2,6-dimethylphenoxy)-4-fluoro-5-(2-hydroxypropan-2-yl)phenyl]-N-ethyl-6-methyl-7-oxo-6,7-dihydro-1H-pyrrolo[2,3-c]pyridine-2-carboxamide] | 0.4 | 181
